These results are taken from patent US20070037790A1, “Bicyclo-pyrazole derivatives active as kinase inhibitors, process for their preparation and pharmaceutical compositions comprising them” (priority 2003, published 2007).

pIC50: −log10 of the molar value.

The assay has as its target Cdk2/Cyclin A (Homo sapiens, UniProt P24941). The assay is described as follows: Inhibition assay of Cdk2/Cyclin A activity (SPA). It counts as biochemical. As to conditions: 10 μM ATP, biotinylated histone H1 substrate, read-out: IC50 against Cdk2/Cyclin A. How it is done: The inhibiting activity of putative Cdk/Cyclin inhibitors and the potency of selected compounds is determined through a method of assay based on the use of the SPA technology (Amersham Pharmacia Biotech).
The assay consists of the transfer of radioactivity labelled phosphate moiety by the kinase to a biotinylated substrate. The resulting 33P-labelled biotinylated product is allowed to bind to streptavidin-coated SPA beads (biotin capacity 130 pmol/mg), and light emitted is measured in a scintillation counter.
Inhibition Assay of Cdk2/Cyclin A Activity
Kinase reaction: 4 μM in house biotinylated histone H1 (Sigma # H-5505) substrate, 10 μM ATP (0.1 microCi P^33γ-ATP), 4.2 ng Cdk2/Cyclin A complex, inhibitor in a final volume of 30 μl buffer (TRIS HCl 10 mM pH 7.5, MgCl2 10 mM, DTT 7.5 mM+0.2 mg/ml BSA) were added to each well of a 96 U bottom. After 30 min at r.t. incubation, reaction was stopped by 100 μl PBS+32 mM EDTA+0.1% Triton X-100+500 μM ATP, containing 1 mg SPA beads. Then a volume of 110 μl is transferred to Optiplate. After 20 min. incubation for substrate capture, 100 μl 5M CsCl were added to allow statification of beads to the top of the plate and let stand 4 hours before radioactivity counting in the Top-Count instrument
IC50 determination: inhibitors were tested at different concentrations ranging from 0.0015 to 10 μM. Experimental data were analyzed by the computer program GraphPad Prizm using the four parameter logistic equation: y=bottom+(top−bottom)/(1+10ˆ((log IC50−x)*slope)) where x is the logarithm of the inhibitor concentration, y is the response; y starts at bottom and goes to top with a sigmoid shape. Ki Calculation: Experimental method: Reaction was carried out in buffer (10 mM Tris, pH 7.5, 10 mM MgCl2, 0.2 mg/ml BSA, 7.5 mM DTI) containing 3.7 nM enzyme, histone and ATP (constant ratio of cold/labeled ATP 1/3000). Reaction was stopped with EDTA and the substrate captured on phosphomembrane (Multiscreen 96 well plates from Millipore). After extensive washing, the multiscreen plates are read on a top counter. Control (time zero) for each ATP and histone concentrations was measured. Experimental design: Reaction velocities are measured at different four ATP, substrate (histone) and inhibitor concentrations. An […] concentration matrix was designed around the respective ATP and substrate Km values, and the inhibitor IC50 values (0.3, 1, 3, 9 fold the Km or IC50 values). A preliminary time course experiment in the absence of inhibitor and at the different ATP and substrate concentrations allow the selection of a single endpoint time (10 min) in the linear range of the reaction for the Ki determination experiment. Kinetic parameter estimates: Kinetic parameters were estimated by simultaneous nonlinear least-square regression using [Eq.1] […]
Turning to `CC(C)(C)c1ccc(C(=O)Nc2[nH]nc3c2CN(C(=O)c2cnccn2)C3)cc1` [N-{5-(pyrazine-2-carbonyl)-4,6-dihydropyrrolo[3,4-c]pyrazol-3-yl}-4-tertbutylbenzamide], the pIC50 was 5.60.
With `CC(C)(C)c1ccc(C(=O)Nc2[nH]nc3c2CN(C(=O)c2ccncc2)C3)cc1` [N-{5-(pyridine-4-carbonyl)-4,6-dihydropyrrolo[3,4-c]pyrazol-3-yl}-4-tertbutylbenzamide], the pIC50 was less than 5.00.
`CC(C)(C)c1ccc(C(=O)Nc2n[nH]c3c2CN(c2ccnc(N4CCOCC4)n2)C3)cc1` [3-(4-tert-butyl-benzamido)-5-[2-(N-morpholino)pyrimidin-4-yl]-4,6-dihydropyrrolo[3,4-c]pyrazole]: the pIC50 was 6.47.
As for “3-(4-tert-butyl-benzamido)-5-[(2-propylamino)pyrimidin-4-yl]-4,6-dihydropyrrolo[3,4-c]pyrazole”, the pIC50 was 6.66.
